Tests used:
Experiment in all cases: relative viability (nuclei count vs DMSO), 5 days (fraction); higher = more cells survive
AZD1208 + Vorinostat = compound: N[C@@H]1CCCN(c2c(/C=C3\SC(=O)NC3=O)cccc2-c2ccccc2)C1 [AZD1208] + O=C(CCCCCCC(=O)Nc1ccccc1)NO [Vorinostat] (partner 1 µM)
Summary of the method: (§1)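 One day after seeding in 1536-well plates, lung cancer cell lines were dosed by pin tool. Dosing was either single-drug or a fixed anchor-drug dose plus five library-drug doses (not always all listed) in √10 steps. After 5 days, nuclei were stained in one fix-and-stain step and counted on 4× images, and relative viability is the nuclei count of treated wells over that of vehicle wells, given as the median of duplicate plates.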

XMD14-99 + Trametinib = compound: CN1CCN(CC1)C2=CC(=C(C=C2)NC3=NC(=C(S3)C(=O)C4=C(C=CC=C4Cl)Cl)N)OC [XMD14-99] + CC(=O)Nc1cccc(-n2c(=O)n(C3CC3)c(=O)c3c(Nc4ccc(I)cc4F)n(C)c(=O)c(C)c32)c1 [Trametinib] (partner 0.02 µM)
Summary of the method: as §1

XMD14-99 + Phenformin = compound: CN1CCN(CC1)C2=CC(=C(C=C2)NC3=NC(=C(S3)C(=O)C4=C(C=CC=C4Cl)Cl)N)OC [XMD14-99] + N=C(N)NC(=N)NCCc1ccccc1 [Phenformin] (partner 250 µM)
Summary of the method: as §1

AZD1208 + Bortezomib = compound: N[C@@H]1CCCN(c2c(/C=C3\SC(=O)NC3=O)cccc2-c2ccccc2)C1 [AZD1208] + CC(C)C[C@H](NC(=O)[C@H](Cc1ccccc1)NC(=O)c1cnccn1)B(O)O [Bortezomib] (partner 0.002 µM)
Summary of the method: as §1

Cell Line	relative viability (AZD1208 + Vorinostat; first compound 0.08 µM)	relative viability (AZD1208 + Vorinostat; first compound 0.253 µM)	relative viability (AZD1208 + Vorinostat; first compound 0.8 µM)	relative viability (AZD1208 + Vorinostat; first compound 2.53 µM)	relative viability (AZD1208 + Vorinostat; first compound 8 µM)	relative viability (XMD14-99 + Trametinib; first compound 0.08 µM)	relative viability (XMD14-99 + Trametinib; first compound 0.8 µM)	relative viability (XMD14-99 + Trametinib; first compound 2.53 µM)	relative viability (XMD14-99 + Trametinib; first compound 8 µM)	relative viability (XMD14-99 + Phenformin; first compound 0.08 µM)	relative viability (XMD14-99 + Phenformin; first compound 0.8 µM)	relative viability (XMD14-99 + Phenformin; first compound 2.53 µM)	relative viability (XMD14-99 + Phenformin; first compound 8 µM)	relative viability (AZD1208 + Bortezomib; first compound 0.08 µM)	relative viability (AZD1208 + Bortezomib; first compound 0.253 µM)	relative viability (AZD1208 + Bortezomib; first compound 0.8 µM)	relative viability (AZD1208 + Bortezomib; first compound 2.53 µM)	relative viability (AZD1208 + Bortezomib; first compound 8 µM)
LXF-289	0.791	0.849	0.701	0.715	0.832	0.632	0.639	0.611	0.529	0.52	0.502	0.487	0.457	1.04	1.1	0.999	1.07	1.15
NCI-H23	0.508	0.629	0.614	0.602	0.5	0.487	0.326	0.47	0.364	0.767	0.85	0.741	0.659	1.01	1.07	0.926	1.14	0.634
NCI-H322M	0.934	0.868		0.837	0.821	0.491	0.565	0.593	0.521	0.787	0.834	0.699	0.627	1.21	1.31	1.21	1.15	1.25
NCI-H441	0.742	0.757	0.62	0.616	0.711	0.523	0.436	0.389	0.263	0.889	0.811	0.738	0.662	0.322	0.593	0.419	0.455	0.419
NCI-H460	0.731	0.858	0.732	0.708	0.737	0.32	0.228	0.126	0.089	0.517	0.498	0.431	0.325	1.04	1.63	1.06	1.13	0.925
NCI-H520	0.735	0.73	0.711	0.768	0.449	0.656	0.747	0.745	0.437	0.603	0.526	0.498	0.361	0.597	0.718	0.311	0.428	0.399
NCI-H596	0.628	0.632	0.558	0.661	0.48	0.749	0.849	1.06	0.764	0.799	0.883	0.733	0.784	0.578	0.857	0.98	1.01	0.878
NCI-H647	0.521	0.701	0.643	0.428	0.256	0.456	0.495	0.582	0.442	0.526	0.494	0.6	0.489	1.05	1.12	0.902	0.774	0.774
NCI-H650	0.436	0.379	0.47	0.414	0.351	0.861	0.932	1.05	0.907	0.497	0.465	0.423	0.364	1.16	0.774	0.788	0.438	0.664
NCI-H661	0.796	0.775	0.827	0.82	0.917	0.573	0.598	0.481	0.516	0.292	0.272	0.263	0.296	0.665	0.817	0.724	0.759	0.852
NCI-H727	0.925	1.14	1.11	1.11	1.03	0.352	0.403	0.384	0.39	0.423	0.43	0.419	0.374	0.641	0.895	0.804	0.882	0.697
NCI-H838	0.679	0.661	0.639	0.682	0.689	0.502	0.486	0.433	0.357	0.612	0.556	0.474	0.383	0.873	0.94	0.714	0.8	0.692
NCI-H1355	0.638	0.672	0.558	0.603	0.544	0.439	0.434	0.355	0.33	0.518	0.473	0.424	0.36	1.29	1.09	1.15	1.2	1.04
NCI-H1437	0.805	0.93	0.933	1	0.857	0.532	0.402	0.347	0.305	0.321	0.316	0.244	0.237	0.542	0.754	0.584	0.42	0.444
NCI-H1650	0.635	0.464	0.643	0.588	0.472	0.642	0.738	0.542	0.503	0.375	0.498	0.361	0.312	0.201	0.19	0.226	0.199	0.192
NCI-H1651	0.583	0.602		0.561	0.556	0.827	0.835	0.88	0.835	0.321	0.319	0.301	0.272	0.978	0.925	0.858	0.96	0.816
NCI-H1666	1.06	1.02	0.887	0.966	0.908	0.883	0.699	0.739	0.864	0.567	0.553	0.494	0.533	0.828	0.745	0.783	0.637	0.579
NCI-H1734	0.731	0.739	0.756	0.663	0.599	0.659	0.68	0.653	0.642	0.348	0.376	0.368	0.381	0.831	1.05	0.811	0.991	0.611
